Test results reported in ChEMBL document CHEMBL1201862, “PubChem BioAssay data set” (2004).
Calls of active or inactive are those of the source.

Columns and labels:
[1] = inhibitors of firefly luciferase expression or activity, dose response, H4 neuroglioma cells, luminescence (AID 1990); assay type: functional, cell-based
[2] = Luminescence Cell-Based Dose Response HTS to Identify Inhibitors of 5'UTR Stem-Loop Driven Prion Protein mRNA Translation in H4 Neuroglioblastoma Cells. [Related pubchem assays: 1827 (Project Summary), 1813 (Primary HTS)]; assay type: functional
[3] = inhibitors of SNCA 5'UTR-driven reporter translation, confirmation, H4 neuroglioma cells, luminescence (AID 1988); assay type: functional, cell-based
[4] = Luminescence Cell-Based Dose Confirmation HTS to Identify Activators of 5'UTR Stem-Loop Driven Alpha-Synuclein mRNA Translation in H4 Neuroglioblastoma Cells. [Related pubchem assays: 1829 (Project Summary), 1814 (Primary HTS)]; assay type: functional
[5] = Luminescence Cell-Based Dose Response HTS to Identify Activators of Luciferase Translation or Activity in H4 […] Cells. [Related pubchem assays: 1829 (Project Summary), 1814 (Primary HTS)]; assay type: functional
H4 = test: Luminescence Cell-Based Dose Response HTS to Identify Activators of 5'UTR Stem-Loop Driven Prion Protein mRNA Translation in H4 Neuroglioblastoma Cells. [Related pubchem assays: 1829 (Project Summary), 1814 (Primary HTS)]; assay type: functional; conditions: Homo sapiens
Cytochrome P450 2C9 = Cytochrome P450 2C9 (Homo sapiens, UniProt P11712)
Cytochrome P450 3A4 = Cytochrome P450 3A4 (Homo sapiens, UniProt P08684);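 further: CYP3A4 tested as one member of a cytochrome P450 panel screen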
[6] = molecular target: T1, RNA-binding protein pos-1 (Caenorhabditis elegans, UniProt G5EF15); test: inhibitors of POS-1/mex-3 RNA binding, dose response, biochemical, fluorescence polarization (AID 1964);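 further: purified POS-1 fused to maltose binding protein made in E. coli; potency of compounds blocking POS-1 binding to fluorescent RNA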
T1 sequence (G5EF15 whole entry): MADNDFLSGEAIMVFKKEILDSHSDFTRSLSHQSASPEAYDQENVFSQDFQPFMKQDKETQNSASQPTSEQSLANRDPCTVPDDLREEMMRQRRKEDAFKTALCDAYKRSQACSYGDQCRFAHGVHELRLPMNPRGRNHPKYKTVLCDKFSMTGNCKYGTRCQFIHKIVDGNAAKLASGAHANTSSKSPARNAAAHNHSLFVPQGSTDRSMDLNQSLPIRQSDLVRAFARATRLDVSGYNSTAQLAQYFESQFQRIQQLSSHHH

[7] = molecular target: T2, Zinc finger protein mex-5 (Caenorhabditis elegans, UniProt Q9XUB2); test: MEX-5/TCR-2 RNA interaction inhibitors, dose response, biochemical, C. elegans, fluorescence polarization (AID 1960)
T2 sequence (Q9XUB2 whole entry): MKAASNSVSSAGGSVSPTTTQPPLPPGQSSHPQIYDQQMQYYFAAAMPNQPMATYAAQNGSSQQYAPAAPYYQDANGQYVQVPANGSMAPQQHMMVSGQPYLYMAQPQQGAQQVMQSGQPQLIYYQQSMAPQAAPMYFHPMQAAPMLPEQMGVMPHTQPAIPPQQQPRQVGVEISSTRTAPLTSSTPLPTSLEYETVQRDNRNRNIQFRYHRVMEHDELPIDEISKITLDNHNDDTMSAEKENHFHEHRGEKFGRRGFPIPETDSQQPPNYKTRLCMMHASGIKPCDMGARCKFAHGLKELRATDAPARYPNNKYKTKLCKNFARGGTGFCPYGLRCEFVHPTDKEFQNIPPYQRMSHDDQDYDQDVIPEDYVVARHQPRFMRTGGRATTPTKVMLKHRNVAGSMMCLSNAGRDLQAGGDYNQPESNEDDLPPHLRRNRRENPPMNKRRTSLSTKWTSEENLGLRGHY

[8] = molecular target: T3, Replicative DNA helicase DnaB (Mycobacterium tuberculosis, UniProt P9WMR3); test: DnaB intein splicing inhibitors, dose response, biochemical, cell-free fluorescence (AID 449749); assay type: functional
T3 sequence (P9WMR3 whole entry): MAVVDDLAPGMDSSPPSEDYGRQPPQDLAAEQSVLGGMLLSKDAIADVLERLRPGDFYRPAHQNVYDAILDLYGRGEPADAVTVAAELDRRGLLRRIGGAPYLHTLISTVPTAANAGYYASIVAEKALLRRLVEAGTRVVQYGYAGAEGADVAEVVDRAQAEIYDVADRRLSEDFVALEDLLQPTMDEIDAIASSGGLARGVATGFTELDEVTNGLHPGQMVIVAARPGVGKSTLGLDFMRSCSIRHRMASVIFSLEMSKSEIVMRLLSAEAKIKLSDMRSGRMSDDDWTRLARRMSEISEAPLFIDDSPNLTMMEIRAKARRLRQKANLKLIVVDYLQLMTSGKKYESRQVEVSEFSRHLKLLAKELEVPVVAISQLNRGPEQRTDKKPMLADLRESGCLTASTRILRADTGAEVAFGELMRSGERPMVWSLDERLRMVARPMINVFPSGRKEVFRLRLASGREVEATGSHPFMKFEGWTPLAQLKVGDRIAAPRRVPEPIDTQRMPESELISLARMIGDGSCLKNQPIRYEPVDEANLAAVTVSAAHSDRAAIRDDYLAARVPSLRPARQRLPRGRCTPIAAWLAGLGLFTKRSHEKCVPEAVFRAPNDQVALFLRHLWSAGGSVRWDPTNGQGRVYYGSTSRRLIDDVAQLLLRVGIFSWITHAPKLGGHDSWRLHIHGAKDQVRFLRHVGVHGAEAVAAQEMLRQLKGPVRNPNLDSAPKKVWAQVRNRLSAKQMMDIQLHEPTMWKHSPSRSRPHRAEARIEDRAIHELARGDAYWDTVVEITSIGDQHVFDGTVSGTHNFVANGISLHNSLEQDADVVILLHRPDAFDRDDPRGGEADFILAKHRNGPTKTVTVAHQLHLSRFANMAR

Protein RecA = molecular target: T4, Protein RecA (Mycobacterium tuberculosis, UniProt P9WHJ3); test: Fluorescence Cell-Free Homogeneous Dose Retest to Identify Inhibitors of RecA-Intein Splicing Activity. [Related pubchem assays (depositor defined):AID2097, AID2223, AID489010, AID492950]; assay type: functional
T4 sequence (P9WHJ3 whole entry): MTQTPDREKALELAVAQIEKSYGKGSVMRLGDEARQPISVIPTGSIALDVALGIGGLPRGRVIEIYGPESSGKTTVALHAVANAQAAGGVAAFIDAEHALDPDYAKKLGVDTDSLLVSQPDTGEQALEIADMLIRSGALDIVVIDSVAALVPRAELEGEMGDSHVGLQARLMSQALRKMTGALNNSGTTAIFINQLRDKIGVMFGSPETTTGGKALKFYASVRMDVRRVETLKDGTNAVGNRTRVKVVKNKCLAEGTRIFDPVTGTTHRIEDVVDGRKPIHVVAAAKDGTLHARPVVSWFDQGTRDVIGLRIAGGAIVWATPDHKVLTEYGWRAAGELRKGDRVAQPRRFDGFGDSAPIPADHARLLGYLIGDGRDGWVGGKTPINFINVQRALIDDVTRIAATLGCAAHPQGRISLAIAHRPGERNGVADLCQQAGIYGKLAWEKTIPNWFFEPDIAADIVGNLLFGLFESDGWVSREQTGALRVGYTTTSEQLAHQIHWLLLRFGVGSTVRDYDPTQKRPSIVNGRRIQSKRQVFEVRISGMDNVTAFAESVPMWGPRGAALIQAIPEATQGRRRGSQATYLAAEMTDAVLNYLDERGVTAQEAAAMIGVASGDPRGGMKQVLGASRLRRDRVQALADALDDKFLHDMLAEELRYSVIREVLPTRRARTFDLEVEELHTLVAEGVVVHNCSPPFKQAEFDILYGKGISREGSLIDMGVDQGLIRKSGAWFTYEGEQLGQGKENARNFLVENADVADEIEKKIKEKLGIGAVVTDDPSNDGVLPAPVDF

Cytochrome P450 2C19 = Cytochrome P450 2C19 (Homo sapiens, UniProt P33261); test: Cytochrome panel assay with activity outcomes. Panel member name: p450-cyp2c19 Compounds with AC50 equal or less than 10 uM are considered active; assay type: functional; conditions: read-out: AC50
[9] = molecular target: T5, Corticotropin-releasing factor receptor 2/Corticotropin-releasing factor-binding protein (Homo sapiens, UniProt P24387+Q13324); test: activators of CRF receptor 2 with binding protein – uHTS hits, confirmation (AID 602473); assay type: functional; conditions: read-out: EC50_Mean
T5 sequence (Q13324 whole entry): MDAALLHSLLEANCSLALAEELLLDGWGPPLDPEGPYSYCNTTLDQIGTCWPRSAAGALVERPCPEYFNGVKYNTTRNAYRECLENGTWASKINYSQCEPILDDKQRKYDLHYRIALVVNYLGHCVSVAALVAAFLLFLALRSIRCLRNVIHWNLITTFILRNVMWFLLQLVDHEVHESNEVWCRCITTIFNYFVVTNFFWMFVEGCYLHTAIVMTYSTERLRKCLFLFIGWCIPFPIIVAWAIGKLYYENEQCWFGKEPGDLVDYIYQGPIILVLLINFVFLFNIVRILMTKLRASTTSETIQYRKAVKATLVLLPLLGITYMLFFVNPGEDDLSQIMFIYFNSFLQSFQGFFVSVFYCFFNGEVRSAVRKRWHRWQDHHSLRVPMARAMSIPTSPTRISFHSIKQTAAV
T5 sequence (P24387 whole entry): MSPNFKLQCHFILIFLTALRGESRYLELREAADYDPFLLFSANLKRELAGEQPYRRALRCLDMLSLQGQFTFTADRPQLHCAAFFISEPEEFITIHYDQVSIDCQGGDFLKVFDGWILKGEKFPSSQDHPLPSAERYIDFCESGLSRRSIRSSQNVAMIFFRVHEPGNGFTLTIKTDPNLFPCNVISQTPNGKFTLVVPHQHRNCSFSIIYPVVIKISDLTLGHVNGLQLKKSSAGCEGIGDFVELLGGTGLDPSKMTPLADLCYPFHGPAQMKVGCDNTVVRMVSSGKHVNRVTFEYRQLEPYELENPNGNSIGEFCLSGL

Chain of Cytochrome P450 2C19 (P33261 whole entry): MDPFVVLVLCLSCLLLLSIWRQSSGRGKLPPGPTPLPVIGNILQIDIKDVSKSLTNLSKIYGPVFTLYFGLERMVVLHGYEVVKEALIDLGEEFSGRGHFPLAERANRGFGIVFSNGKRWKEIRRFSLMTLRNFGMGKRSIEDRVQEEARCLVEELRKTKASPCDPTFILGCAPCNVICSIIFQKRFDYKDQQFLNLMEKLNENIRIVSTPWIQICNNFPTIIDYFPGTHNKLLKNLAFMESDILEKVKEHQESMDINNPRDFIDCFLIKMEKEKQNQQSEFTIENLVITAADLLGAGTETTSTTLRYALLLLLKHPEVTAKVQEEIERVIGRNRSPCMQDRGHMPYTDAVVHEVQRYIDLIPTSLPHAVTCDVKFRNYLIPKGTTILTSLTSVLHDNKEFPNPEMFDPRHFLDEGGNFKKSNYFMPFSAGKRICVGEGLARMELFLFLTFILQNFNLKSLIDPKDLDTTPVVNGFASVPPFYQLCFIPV
Chain of Cytochrome P450 2C9 (P11712 whole entry): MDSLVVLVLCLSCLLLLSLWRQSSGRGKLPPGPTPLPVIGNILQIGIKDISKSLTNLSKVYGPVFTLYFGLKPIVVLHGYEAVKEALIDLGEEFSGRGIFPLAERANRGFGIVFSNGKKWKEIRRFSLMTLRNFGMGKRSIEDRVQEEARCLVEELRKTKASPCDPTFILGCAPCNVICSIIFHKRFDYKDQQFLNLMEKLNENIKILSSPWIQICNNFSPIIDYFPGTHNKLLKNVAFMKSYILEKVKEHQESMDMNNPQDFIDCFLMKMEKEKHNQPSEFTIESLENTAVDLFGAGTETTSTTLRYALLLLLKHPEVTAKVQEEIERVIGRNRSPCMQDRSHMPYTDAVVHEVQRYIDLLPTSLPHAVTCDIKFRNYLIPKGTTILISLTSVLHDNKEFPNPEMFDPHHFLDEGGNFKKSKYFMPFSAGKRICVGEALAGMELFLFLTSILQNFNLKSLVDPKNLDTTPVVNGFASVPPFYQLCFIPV
Chain of Cytochrome P450 3A4 (P08684 whole entry, the tested form may be a part): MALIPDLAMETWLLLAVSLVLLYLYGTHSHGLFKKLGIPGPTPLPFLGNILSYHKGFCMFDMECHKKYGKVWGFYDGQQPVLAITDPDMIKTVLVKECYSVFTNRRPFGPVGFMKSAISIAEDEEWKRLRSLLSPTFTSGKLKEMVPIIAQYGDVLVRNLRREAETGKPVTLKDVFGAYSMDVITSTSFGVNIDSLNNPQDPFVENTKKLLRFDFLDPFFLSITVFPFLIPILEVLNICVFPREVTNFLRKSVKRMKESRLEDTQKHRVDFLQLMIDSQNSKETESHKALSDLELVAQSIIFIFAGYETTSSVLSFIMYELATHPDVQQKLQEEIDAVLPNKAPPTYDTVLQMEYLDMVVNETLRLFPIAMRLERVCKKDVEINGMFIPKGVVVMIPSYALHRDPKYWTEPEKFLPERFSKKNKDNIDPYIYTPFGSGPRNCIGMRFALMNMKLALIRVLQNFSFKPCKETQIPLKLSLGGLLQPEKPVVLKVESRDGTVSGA

Row | Compound | EC50 [4] | EC50 [5] | EC50 (H4) | AC50 (Cytochrome P450 2C9) | further results
1 | CC(C)CCn1c(N)c(S(=O)(=O)c2cccs2)c2nc3ccccc3nc21 |  |  |  |  | EC50 [1]: 69 µM (active); EC50 [2]: > 120 µM (not active); EC50 [3]: > 120 µM (not active)
2 | COC(=O)c1ccc(COC(=O)c2nn(C)c(=O)c3ccccc23)cc1 | 15.6 µM (active) | 14.1 µM (active) | > 120 µM (not active) |  | 
3 | Cc1nn(C)c(C)c1CNC(=O)c1cnn2c1NC(c1ccccc1)CC2C(F)(F)F (centres undefined) |  |  |  | 15.8 µM (inconclusive) | 
4 | CCOC(=O)N1CCC(NC(=O)c2ccc3c(c2)sc2nc(-c4cccc(OC)c4)cn23)CC1 | 28.6 µM (active) | 12.6 µM (active) | 7.29 µM (active) |  | 
5 | CC(C)[C@@H]1NC(=O)[C@H](CCCCN)NC(=O)[C@H](Cc2c[nH]c3ccccc23)NC(=O)[C@H](Cc2ccc(O)cc2)NC(=O)[C@H](C)N(C)C(=O)[C@H](Cc2ccccc2)NC1=O |  |  |  | 25.1 µM (inconclusive) | 
6 | COc1cc(N=C(S)N2CCOCC2)c(OC)cc1Cl | > 120 µM (not active) | > 120 µM (not active) | > 120 µM (not active) |  | 
7 | COC(=O)c1cnn(-c2nc(-c3ccccc3)cs2)c1N | 0.585 µM (active) | 72.2 µM (active) | > 120 µM (not active) |  | 
8 | O=C(OCc1nc2ccccc2[nH]1)C12CC3CC(CC(C3)C1)C2 |  |  |  | 14.1 µM (inconclusive) | AC50 (Cytochrome P450 3A4): 1.12 µM (inconclusive)
9 | O=C(CCN1CCN(CC(=O)Nc2ccccc2Cl)CC1)Nc1ccccc1F |  |  |  | 10 µM (inconclusive) | AC50 (Cytochrome P450 3A4): 20 µM (inconclusive)
10 | COC(=O)c1cc(CSc2nc3ccccc3[nH]2)oc1C | 12.8 µM (active) | 31.9 µM (active) |  |  | 
11 | C=CCOc1ccc(C(=O)C2=C(O)C(=O)N(CCCn3ccnc3)C2c2cccs2)cc1 (centres undefined) | > 120 µM (not active) | 12 µM (active) | > 120 µM (not active) |  | 
12 | O=C(CSCc1c(Cl)cccc1Cl)NCC1CCCO1 (centres undefined) |  |  |  |  | EC50 [6]: > 300 µM (not active); EC50 [7]: > 300 µM (not active)
13 | CCC(C)N1C(=O)/C(=C\NNc2nc3c(c(=O)n(C)c(=O)n3C)n2C)C(=O)NC1=S (centres undefined) |  |  |  |  | EC50 [6]: > 300 µM (not active); EC50 [7]: 38.6 µM (active)
14 | N#CC(C#N)=Cc1ccc(-c2ccccc2)o1 |  |  |  |  | EC50 [6]: 6.78 µM (inconclusive); EC50 [7]: 22.5 µM (inconclusive)
15 | Cc1cc(/C=C2\C(=O)NC(=O)N(Cc3ccco3)C2=O)c(C)n1-c1ccc(C(=O)O)cc1 |  |  |  |  | EC50 [7]: > 300 µM (inconclusive)
16 | O=C(Nc1cccc(OC(=O)c2ccco2)c1)c1ccco1 |  |  |  | 25.1 µM (inconclusive) | AC50 [8]: 21.4 µM (active); EC50 (Protein RecA): 10.1 µM (active)
17 | O=C(c1cc(C(F)(F)F)cc(C(F)(F)F)c1)N1CCC2(CCCN(Cc3ccncc3)C2)CC1 |  |  |  | 7.94 µM (inconclusive) | AC50 (Cytochrome P450 2C19): 25.1 µM (inconclusive); AC50 (Cytochrome P450 3A4): 10 µM (inconclusive)
18 | Cc1ccc2nc(-c3ccc(S(=O)(=O)N4CCCCC4)cc3)cn2c1 | > 120 µM (not active) | 24.4 µM (active) | 14.9 µM (active) |  | 
19 | Cc1cc(C)cc(NS(=O)(=O)c2ccc3ncc(C(=O)N4CCc5ccccc54)c(O)c3c2)c1 |  |  |  |  | EC50 [9]: > 53 µM (inactive)
20 | CC1CC1C(=O)OCC(=O)NC(=O)NC12CC3CC(CC(C3)C1)C2 (centres undefined) | 13.1 µM (active) | 21.1 µM (active) | 15.4 µM (active) |  | 
21 | COC(=O)C1=C(NC(=O)c2cccs2)CCS1 |  |  |  | 39.8 µM (inconclusive) | AC50 (Cytochrome P450 2C19): 17.8 µM (inconclusive)
22 | N#Cc1cccc(-c2nc(NCc3cccnc3)c3ccccc3n2)c1 |  |  |  | 1.58 µM (inconclusive) | 
23 | C/C(=N\NC(N)=O)c1ccc(Cl)cc1 |  |  |  | 2 µM (inconclusive) | AC50 (Cytochrome P450 2C19): 31.6 µM (inconclusive)
24 | CC1CCCC(/C=N/c2ccc3c(c2)OCO3)=C1O (centres undefined) | 13.7 µM (active) | 16.1 µM (active) | 39.1 µM (active) |  | 
